Measured values reported in ChEMBL document CHEMBL1131350, “Design of novel tripeptides with macrophage migration-enhancing activity” (1998).
Peptide text beside a SMILES is read from it. * marks the point of attachment. Fmoc = O=C(OCC1c2ccccc2-c2ccccc21)*; Cbz = O=C(OCc1ccccc1)*; Boc = CC(C)(C)OC(=O)*

Columns and labels:
[1] = Macrophage migration-enhancing activity evaluated using rabbit alveolar macrophages at 1E-7M; format: functional, Oryctolagus cuniculus
Oryctolagus cuniculus = species: Oryctolagus cuniculus; assay: Macrophage migration-enhancing activity was evaluated using rabbit alveolar macrophages expressed as Migration Index (MI); format: functional

SMILES | MI [1] | MI (Oryctolagus cuniculus)
NC(=O)[C@@H](Cc1c[nH]cn1)NC(=O)[C@H](Cc1ccccc1)NC(=O)[C@H](Cc1ccccc1)NC(=O)OCc1ccccc1 | -1 | –
NC(=O)[C@H](Cc1c[nH]cn1)NC(=O)[C@H](Cc1ccccc1)NC(=O)[C@@H](Cc1ccccc1)NC(=O)OCc1ccccc1 | 2 | –
NC(=O)[C@H](Cc1c[nH]cn1)NC(=O)[C@H](Cc1ccccc1)NC(=O)[C@H](Cc1ccccc1)NC(=O)OCc1ccccc1 | 94 | –
NC(=O)C(Cc1c[nH]cn1)NC(=O)[C@@H](Cc1ccccc1)NC(=O)OCc1ccccc1 (some centres undefined) | 18 | –
NC(=O)[C@H](Cc1c[nH]cn1)NC(=O)[C@@H](Cc1ccccc1)NC(=O)[C@H](Cc1ccccc1)NC(=O)OCc1ccccc1 | 0 | –
NC(=O)[C@H](Cc1c[nH]cn1)NC(=O)[C@H](Cc1ccccc1)NC(=O)[C@H](Cc1ccccc1)N1C(=O)c2ccccc2C1=O | -1 | –
Clc1ccc(C2=N[C@H](c3ccccc3)[C@H](c3ccccc3)N2)cc1 | – | 140
CC(=O)N[C@@H](Cc1ccccc1)C(=O)N[C@@H](Cc1ccccc1)C(=O)N[C@@H](Cc1c[nH]cn1)C(N)=O (Ac-Phe-Phe-His-NH2) | 61 | –
CC(C)(C)OC(=O)N[C@@H](Cc1ccccc1)C(=O)N[C@@H](Cc1ccccc1)C(=O)N[C@@H](Cc1c[nH]cn1)C(N)=O (Boc-Phe-Phe-His-NH2) | 96 | –
C[C@H](NC(=O)OCc1ccccc1)C(=O)N[C@@H](Cc1ccccc1)C(=O)N[C@@H](Cc1c[nH]cn1)C(N)=O (Cbz-Ala-Phe-His-NH2) | 2 | –
NC(=O)[C@H](Cc1c[nH]cn1)NC(=O)[C@H](Cc1ccccc1)NC(=O)[C@H](Cc1ccccc1)NC(=O)[C@H](Cc1ccccc1)NC(=O)OCc1ccccc1 (Cbz-FFFH-NH2) | 15 | –
NC(=O)[C@H](Cc1ccccc1)NC(=O)[C@H](Cc1ccccc1)NC(=O)[C@H](Cc1c[nH]cn1)NC(=O)OCc1ccccc1 (Cbz-His-Phe-Phe-NH2) | 1 | –
CC(C)C[C@H](NC(=O)OCc1ccccc1)C(=O)N[C@@H](Cc1ccccc1)C(=O)N[C@@H](Cc1c[nH]cn1)C(N)=O (Cbz-Leu-Phe-His-NH2) | 4 | –
NC(=O)[C@H](Cc1ccccc1)NC(=O)[C@H](Cc1c[nH]cn1)NC(=O)[C@H](Cc1ccccc1)NC(=O)OCc1ccccc1 (Cbz-Phe-His-Phe-NH2) | -1 | –
CC(C)C[C@H](NC(=O)[C@H](Cc1ccccc1)NC(=O)OCc1ccccc1)C(=O)N[C@@H](Cc1c[nH]cn1)C(N)=O (Cbz-Phe-Leu-His-NH2) | 4 | –
N=C(N)NCCC[C@H](NC(=O)[C@H](Cc1ccccc1)NC(=O)[C@H](Cc1ccccc1)NC(=O)OCc1ccccc1)C(N)=O (Cbz-Phe-Phe-Arg-NH2) | 8 | –
CCOC(=O)[C@H](Cc1c[nH]cn1)NC(=O)[C@H](Cc1ccccc1)NC(=O)[C@H](Cc1ccccc1)NC(=O)OCc1ccccc1 (Cbz-Phe-Phe-His-OEt) | 95 | –
O=C(N[C@@H](Cc1ccccc1)C(=O)N[C@@H](Cc1ccccc1)C(=O)N[C@@H](Cc1c[nH]cn1)C(=O)O)OCc1ccccc1 (Cbz-Phe-Phe-His-OH) | -6 | –
COC(=O)[C@H](Cc1c[nH]cn1)NC(=O)[C@H](Cc1ccccc1)NC(=O)[C@H](Cc1ccccc1)NC(=O)OCc1ccccc1 (Cbz-Phe-Phe-His-OMe) | 97 | –
NCCCC[C@H](NC(=O)[C@H](Cc1ccccc1)NC(=O)[C@H](Cc1ccccc1)NC(=O)OCc1ccccc1)C(N)=O (Cbz-Phe-Phe-Lys-NH2) | 3 | –
NC(=O)[C@H](Cc1c[nH]cn1)NC(=O)[C@H](Cc1c[nH]c2ccccc12)NC(=O)[C@H](Cc1ccccc1)NC(=O)OCc1ccccc1 (Cbz-Phe-Trp-His-NH2) | 7 | –
NC(=O)[C@H](Cc1c[nH]cn1)NC(=O)[C@H](Cc1ccc(O)cc1)NC(=O)[C@H](Cc1ccccc1)NC(=O)OCc1ccccc1 (Cbz-Phe-Tyr-His-NH2) | -23 | –
NC(=O)[C@H](Cc1c[nH]cn1)NC(=O)[C@H](Cc1ccccc1)NC(=O)[C@H](Cc1c[nH]c2ccccc12)NC(=O)OCc1ccccc1 (Cbz-Trp-Phe-His-NH2) | 14 | –
NC(=O)[C@H](Cc1c[nH]cn1)NC(=O)[C@H](Cc1c[nH]c2ccccc12)NC(=O)[C@H](Cc1c[nH]c2ccccc12)NC(=O)OCc1ccccc1 (Cbz-Trp-Trp-His-NH2) | 4 | –
NC(=O)[C@H](Cc1c[nH]cn1)NC(=O)[C@H](Cc1ccccc1)NC(=O)[C@H](Cc1ccc(O)cc1)NC(=O)OCc1ccccc1 (Cbz-Tyr-Phe-His-NH2) | -28 | –
NC(=O)[C@H](Cc1c[nH]cn1)NC(=O)[C@H](Cc1ccc(O)cc1)NC(=O)[C@H](Cc1ccc(O)cc1)NC(=O)OCc1ccccc1 (Cbz-Tyr-Tyr-His-NH2) | -25 | –
CC(C)[C@H](NC(=O)OCc1ccccc1)C(=O)N[C@@H](Cc1ccccc1)C(=O)N[C@@H](Cc1c[nH]cn1)C(N)=O (Cbz-Val-Phe-His-NH2) | 3 | –
NC(=O)[C@H](Cc1c[nH]cn1)NC(=O)[C@H](Cc1ccccc1)NC(=O)[C@H](Cc1ccccc1)NC(=O)OCC1c2ccccc2-c2ccccc21 (Fmoc-Phe-Phe-His-NH2) | 122 | –
NC(=O)[C@H](Cc1c[nH]cn1)NC(=O)[C@H](Cc1ccccc1)NC(=O)[C@@H](N)Cc1ccccc1 (H-Phe-Phe-His-NH2) | 7 | –
